The test system of the experiment is normal human keratinocytes. Kind of experiment: DNA synthesis rate (3H-thymidine incorporation) in normal human keratinocytes. It is filed as cell-based. Particulars: Homo sapiens, Keratinocyte; for activity at 1 µM: read-out: DNA synthesis of keratinocytes. From the text:
Initiation of differentiation of keratinocytes is accompanied by inhibition of their growth. The rate of synthesis of DNA determined by the incorporation of radiolabeled substrate [^3 H] thymidine, is an indicator of the rate of growth of the cells. A decrease in DNA synthesis therefore indicates decrease in growth and increase in differentiation of keratinocytes.
Methodology Used for Determining the Rate of DNA Synthesis in Keratinocytes After Treatment With Various Actives
1. Normal human keratinocytes isolated from neonatal foreskins by trypsin treatment were grown in DME medium/10% fetal calf serum in the presence of irradiated 3T3 mouse fibroblasts for establishing dividing keratinocyte colonies. Keratinocytes were grown under the above condition until their third passage.
2. For the experiments, third passage keratinocytes were plated into a serum-free keratinocyte growth medium (KGM; obtained from Clonetics Corporation, San Diego, Calif.) containing 0.15 mM calcium. 20,000 to 30,000 cells were plated into each well of 24 well cell culture plates and grown for 5 days, until the cells reach about 80% confluence.
3. Medium was changed to fresh medium and the various test materials were added to the medium from an ethanolic stock solution (10 A.M.). The final ethanol concentration in the cultures was kept below 0.2%. Control cultures received no tested material but were dosed with 0.2% ethanol. Each compound or combination was tested in three separate wells. By 4 P.M., 1 uCi of ^3 H-thymidine (AmerSham Corp., Sp activity 40 Ci/mmol) was added to the 1 ml medium in each well. The cells were incubated overnight and 24 hours later (10 A.M. next day) the amount of ^3 H-thymidine associated with the cellular DNA of keratinocytes was assessed as described below.
4. The medium was aspirated, and the wells washed with 1 ml phosphate-buffered saline. The DNA and proteins of the cells in the plate were then precipitated by adding 1 ml of ice-cold 10% trichloroacetic acid (TCA). The plates were left on ice for 30 minutes to complete the precipitation process. TCA was then aspirated and each well was then washed four times with 5% TCA. The plates were then dried on a filter pad and the cells in the wells were dissolved in 0.5 ml of 0.1N sodium hydroxide. The sodium hydroxide was then neutralized using 0.1N hydrochloric acid and the solution (1 ml total volume) was then transferred to a scintillation vial. 100 ul samples from each vial were used for protein assay using BCA protein assay reagent obtained from Pierce Chemical Company. 8 ml of a scintillation fluid (Ecolume) was added to the rest of the solution in the vial, and the vials were counted in a scintillation counter to determine the amount of radioactivity in each vial. The DNA synthesis rate was then calculated as cpm ^3 H thymidine incorporated into total cellular DNA/microgram of cell protein for each individual well. Mean and standard deviation for each group was also calculated.
5. All lipids listed in Tables 1-5 below were synthesized in-house. 25-OH-D3 and 1,25-(OH)2 D3 were obtained from Hoffman La Roche. Vitamin D3 was obtained from Sigma.
(In general: Incorporation of labelled thymidine or its analogues reports DNA synthesis.)

Setting [1] is: Table 2, ceramide alone, Test 1.
[2] abbreviates: Table 5, 3 μM lipid, 0 nM 25-OH-D3, * = statistically significant growth inhibition.

Structures are written as SMILES. Read-outs that look alike come from different tables or passages of the source.

Take `CCCCCCCCCCCCC/C=C/C(O)C(CO)NC(C)=O` (centres unmarked) [Ceramide (Formula A)]: the activity at 0.3 µM (Table 2, ceramide alone, 0.3 μM, Test 3) was 146 ± 21%. In addition, the activity at 1 µM by setting is: under setting [1], 115 ± 11%; (Table 2, ceramide alone, Test 2) 83.1 ± 6%. Besides, the activity at 3 µM is, setting by setting: (Table 2, ceramide alone, 3.0 μM, Test 3) 112 ± 13%; (Table 4, 3.0 μM ceramide, 0 vitamin D3 or metabolite (ethanol vehicle only)) 87.9 ± 0.8%; under setting [2], 88 ± 0.8%. Further, the activity at 10 µM worked out at 105 ± 22.4% under setting [1]; 69.9 ± 10% (Table 2, ceramide alone, Test 2, * = statistically significant growth inhibition); 66 ± 14% (Table 2, ceramide alone, Test 3, * = statistically significant growth inhibition). Also, the minimal effective concentration (Table 2 summary, only at the highest concentration, 2 out of 3 experiments, read-out: concentration at which statistically significant growth inhibition occurred) came to 10 µM.
For `CCCCCCCCCCCCCCC(O)CN(CCO)C(C)=O` (centres unmarked) [pseudoceramide (Formula C)], the activity at 3 µM under setting [2] turned out to be 51.4 ± 4%.

The values are drawn from patent US5476661A, “Compositions for topical application to skin, hair and nails” (Elizabeth Arden Co., Division of Conopco, Inc., priority 1994, dated 1995).
